This series in a line: Determination of tolcapone's particle size (laser analyzer MASTERSIZER 2000, Ph. Eur. 2.9.31). In kind it is physicochemical. The note with it: wet dispersion in water for injection. The source says: Determination of Tolcapone's Particle Size
Particle size measurement (Dv,0.1, Dv,05, Dv,0.9 and Dv,1.0) may be determined according to the general method described in section 2.9.31 of the European Pharmacopeia in particular using a particle size laser analyzer MASTERSIZER 2000 from Malvern featuring a wet dispersion unit HYDRO 2000 SM for small volumes of sample.
Material: • Sample: Tolcapone suspension • Refraction index: 1.59 (default) • Dispersant: water for injection • Refraction index: 1.33
Cycles: • Measurements for each aliquot: 3 • Lag time: 12 s • Pump stirring velocity: 2500 rpm
Measuring Time: • Measure: 12 s (in triplicates) • Measure snaps: 12000 • Background: 10 s • Background snaps: 10000
Three readings are made for each sample.
Thus, Dv,0.9 lower than 54.33 μm that 90% of the volume of the particles is in particles which are smaller 54.33 μm.

Two compounds from patent publication US11883538B2, “Sustained release compositions comprising micronized tolcapone” (Som Innovation Biotech, S.L., priority 2016, dated 2024) can be followed below.

On to `Cc1ccc(C(=O)c2cc(O)c(O)c([N+](=O)[O-])c2)cc1` [micronized tolcapone, (3,4-dihydroxy-5-nitrophenyl)(4-methylphenyl)methanone], for which the “Dv,0.1” value is listed as below 6.09 μm, the “Dv,0.5” value is below 17.62 μm, the “Dv,0.9” value is reported as below 54.33 μm and the “Dv,1.0” value is listed as below 316.23 μm.
Take `Cc1ccc(C(=O)c2cc(O)c(O)c([N+](=O)[O-])c2)cc1` [non-micronized tolcapone, (3,4-dihydroxy-5-nitrophenyl)(4-methylphenyl)methanone]: the “Dv,0.1” value was below 22.45 μm, the “Dv,0.5” value is listed as below 87.23 μm, the “Dv,0.9” value is below 307.86 μm and the “Dv,1.0” value is below 1096.48 μm.
